# In patent US10532106B2 (priority 2014, dated 2020):
# Entries after “also recorded” stand apart in the source; their conditions may differ. Numbered stars: 1 amine (or outer) side, 2 acyl side, 3 side chain; on linkers, the order of the positions; unused ones are H or OH. Bridge positions count the residues as written; N and C are the ends. Square brackets hold non-standard residues; d marks the D form. Peptide text beside a SMILES is read from it. * marks the point of attachment. X2 = COc1cc2cc(c1Cl)N(C)C(=O)C[C@H](OC(=O)[C@H](C)N(C)C(=O)CCC(C)SSC(C)CCC(=O)*)[C@]1(C)O[C@H]1[C@H](C)[C@@H]1C[C@@](O)(NC(=O)O1)[C@H](OC)/C=C/C=C(\C)C2; X3 = COc1cc2cc(c1Cl)N(C)C(=O)C[C@H](OC(=O)[C@H](C)N(C)C(=O)CCSSCCCC(=O)*)[C@]1(C)O[C@H]1[C@H](C)[C@@H]1C[C@@](O)(NC(=O)O1)[C@H](OC)/C=C/C=C(\C)C2; 5FAM = O=C1OC2(c3ccc(O)cc3Oc3cc(O)ccc32)c2ccc(C(=O)*)cc21; 1Nal = N[C@@H](Cc1cccc2ccccc12)C(=O)O; TBMB = c1c(C[*:1])cc(C[*:3])cc1C[*:2]; Tle = CC(C)(C)[C@H](N)C(=O)O; βAla = NCCC(=O)O; Sar = CNCC(=O)O
# Assays:
# [1] = system: HT-1080 xenograft tumours; assay: Efficacy in HT-1080 xenograft mice; format: in vivo, mouse; details: HT1080 xenograft
# Procedure: Balb/c nude mice bearing subcutaneous HT-1080 xenograft tumours were treated with BDCs or vehicle (PBS). BDCs were dosed 3 times weekly for 2 weeks, dosing initiated when tumours measured approx. 150-200 mm^3. Mice were monitored, and measurements of tumour volume and body weight recorded 3 times a week.
# [2] = target: T1, MT1-MMP hemopexin domain (Homo sapiens, UniProt P50281); assay: Direct binding fluorescence polarisation (FP) assay
# T1 construct: residues Cys319-Gly511 from the human gene; His6 (N); made in house; host or cells: HEK293 (transient), pEXPR-IBA42 vector
# Procedure: Direct Binding Fluorescence Polarisation or Anisotropy Assays are performed by titrating a constant concentration of fluorescent tracer (here, the fluoresceinated bicyclic peptide to be studied) with its binding partner (here, the MT1-MMP hemopexin domain). As the concentration of binding partner increases during the titration, the polarisation signal changes in proportion to the fraction of bound and unbound material. This allows determination of […] (Kd) quantitatively. Assay data can be fit using standard ligand binding equations.
# The titrant (binding partner) concentration is varied from 0.1 nM up to typically 5 μM. The range is chosen such that the maximum change in fluorescent polarisation can be observed. Buffers employed are phosphate buffered saline in the presence of 0.01% Tween. Experiments were run in black 384 well low-bind/low volume plates (Corning 3820), and the fluorescent polarisation signal was measured using a BMG Pherastar FS plate reader.
# Fluorescent tracers referred to in the text are bicyclic peptides that have been fluoresceinated using 5,6-carboxyfluorescein. Fluoresceination may be performed on the N-terminal amino group of the peptide, which is separated from the bicycle core sequence by a sarcosine spacer (usually Sar5). This can be done during Fmoc solid phase synthesis or post-synthetically (after cyclisation with TBMB and purification) if the N-terminal amino group is unique to the peptide. Fluoresceination can also be performed on the C-terminus, usually on a Lysine introduced as the first C-terminal residue, which is then separated from the bicycle core sequence by a sarcosine spacer (usually Sar6). Thus, N-terminal tracers can have a molecular format described as Fluo-Gly-Sar5-A(BicycleCoreSequence), and (BicycleCoreSequence)-A-Sar6-K(Fluo) for a C-terminally fluoresceinated construct. Fluorescent tracers used in the Examples are A-(17-69)-A-Sar6-K(Fluo), A-(17-69-07)-A-Sar6-K(Fluo), and A-(17-69-12)-A-Sar6-K(Fluo). Due to the acidic nature of the 17-69 fluorescent peptides, they were typically prepared as concentrated DMSO stocks, from which dilution were prepared in 100 mM Tris pH 8 buffer.
# [3] = target: T1, MT1-MMP hemopexin domain; assay: Competition assay using fluorescence polarisation; format: binding
# Summary of the method: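 Pre-formed PEX–fluorescent tracer complex titrated with non-fluoresceinated bicyclic peptide, which displaces tracer and lowers fluorescence polarisation. Competitor Kd obtained by fitting to the cubic-equation solution for tracer/titrant/protein equilibria, using tracer Kd from separate direct-binding FP.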
# [4] = Plasma stability, quantitative LC-MS; format: in vitro ADME, rat; details: Table 16; incubation up to 24 hrs, 4 μM
# [5] = cited from earlier work
# [6] = Relative stability to DTT of Bicycle Drug Conjugates, quantitative LC-MS; format: physicochemical; details: Bicycle Drug Conjugates containing the disulphide linker
# Procedure: The four BDCs were assessed for several in vitro parameters such as retention of potency to the human MT1-MMP hemopexin domain, stability in ex vivo mouse, rat and human plasma, and stability to reducing agents such as dithiothreitol.
# [7] = Plasma stability, quantitative LC-MS (Method #2); format: in vitro ADME, mouse; details: Table 16; incubation up to 24 hrs, 4 μM
# Procedure: (§1) […] […] Prior to LC-MS analysis, samples were defrosted, and mixed with 3 volumes (here, 120 μL) of 1:1 acetonitrile/MeOH water. The milky suspensions were centrifuged for 30 min at 13000 rpm, and peptide-containing supernatants were quantitated for doubly/triply charged species and MS/MS fragments thereof using a Waters Xevo TQ-D instrument, while using a plasma extracted standard curve of the same peptides as a reference. The half-life of degradation in plasma was used to assess the comparative stability of the molecules.
# [8] = system: human lung squamous cell carcinoma line EBC-1; assay: Efficacy in EBC-1 xenograft mice; format: in vivo, mouse
# Procedure: All BDCs containing the stabilised bicycle core sequence were tested for their efficacies in in vivo mouse xenograft models, using the human lung squamous cell carcinoma line EBC-1.
# The area under the curve (AUC) of tumour volume over time and BDC was taken and plotted against the corresponding dose group (FIG. 13).
# [9] = Plasma stability, quantitative LC-MS (Method #2); format: in vitro ADME, human; details: for t1/2 (hrs) (human plasma): Table 16, incubation up to 24 hrs, 4 μM
# Procedure: as §1
# [10] = Table 2, FP method Direct Binding, read-out: Kd
smiles,measurement,setting,value
CC[C@H](C)[C@@H]1NC(=O)[C@H](CC(=O)O)NC(=O)[C@H](Cc2ccc(O)cc2)NC(=O)[C@H](Cc2ccccc2)NC(=O)[C@H](CC(=O)O)NC(=O)[C@H](CCC(=O)O)NC(=O)[C@@H]2CSCc3cc(cc(c3)CSC[C@H](NC(=O)[C@H](C)NC(=O)CN(C)C(=O)CN(C)C(=O)CN(C)C(=O)CN(C)C(=O)CN(C)C(=O)CN(C)C(=O)CN(C)C(=O)CN(C)C(=O)CN(C)C(=O)CN(C)C(=O)CNC(=O)CCCSSCCC(=O)N(C)[C@@H](C)C(=O)O[C@H]3CC(=O)N(C)c4cc(cc(OC)c4Cl)C/C(C)=C/C=C/[C@@H](OC)[C@@]4(O)C[C@H](OC(=O)N4)[C@@H](C)[C@@H]4O[C@@]34C)C(=O)N[C@@H](Cc3ccc(O)cc3)C(=O)N[C@@H](CC(N)=O)C(=O)N[C@@H](CCC(=O)O)C(=O)N[C@@H](Cc3ccccc3)C(=O)NCC(=O)N2)CSC[C@@H](C(N)=O)NC1=O [BT17BDC-9] (X3-G[Sar][Sar][Sar][Sar][Sar][Sar][Sar][Sar][Sar][Sar]ACYNEFGCEDFYDIC-NH2; linker 13-19-26 via TBMB),weight of the animals,[1],largely stable
same,tumour volume,"[1]; compared to vehicle control, listed as BDC17BDC-9",significant reduction in tumour volume after 9 days post injection; also recorded: Tumours were completely cleared by day 14
"CC[C@H](C)[C@@H]1NC(=O)[C@H](CC(=O)O)NC(=O)[C@H](Cc2ccc(O)cc2)NC(=O)[C@H](Cc2ccccc2)NC(=O)[C@H](CC(=O)O)NC(=O)[C@H](CCC(=O)O)NC(=O)[C@@H]2CSCc3cc(cc(c3)CSC[C@@H](C(=O)N[C@@H](C)C(=O)N(C)CC(=O)N(C)CC(=O)N(C)CC(=O)N(C)CC(=O)N(C)CC(=O)N(C)CC(=O)N[C@@H](CCCCNC(=O)c3ccc4c(c3)C(=O)OC43c4ccc(O)cc4Oc4cc(O)ccc43)C(N)=O)NC1=O)CSC[C@H](NC(=O)[C@H](C)N)C(=O)N[C@@H](Cc1ccc(O)cc1)C(=O)N[C@@H](CC(N)=O)C(=O)N[C@@H](CCC(=O)O)C(=O)N[C@@H](Cc1ccccc1)C(=O)NCC(=O)N2 [17-69-07-N040, A-(17-69-07)-A-Sar6-K(Fl)] (H-ACYNEFGCEDFYDICA[Sar][Sar][Sar][Sar][Sar][Sar]K(5FAM)-NH2; linker 2-8-15 via TBMB)",Kd,[2]; [10],0.52 nM
COc1cc2cc(c1Cl)N(C)C(=O)C[C@H](OC(=O)[C@H](C)N(C)C(=O)CCC(C)SSC(C)CCC(=O)NCCC(=O)N(C)CC(=O)N(C)CC(=O)N(C)CC(=O)N(C)CC(=O)N(C)CC(=O)N(C)CC(=O)N(C)CC(=O)N(C)CC(=O)N(C)CC(=O)N(C)CC(=O)N[C@@H](C)C(=O)N[C@H]1CSCc3cc4cc(c3)CSC[C@H](NC(=O)[C@@H](C)NC(=O)[C@H](Cc3cccc5ccccc35)NC(=O)[C@H](CCC(=O)O)NC(=O)[C@H](CC(N)=O)NC(=O)[C@@H](C)NC1=O)C(=O)N[C@@H](CCC(=O)O)C(=O)N[C@@H](CC(=O)O)C(=O)N[C@@H](Cc1ccccc1)C(=O)N[C@@H](Cc1ccc(O)cc1)C(=O)N[C@@H](CC(=O)O)C(=O)N[C@@H](C(C)(C)C)C(=O)N[C@H](C(N)=O)CSC4)[C@]1(C)O[C@H]1[C@H](C)[C@@H]1C[C@@](O)(NC(=O)O1)[C@H](OC)/C=C/C=C(\C)C2 (stereo partly drawn) [BT17BDC-20] ({X2-βAla}-[Sar][Sar][Sar][Sar][Sar][Sar][Sar][Sar][Sar][Sar]AC[dA]NE[1Nal][dA]CEDFYD[Tle]C-NH2; linker 12-18-25 via TBMB),Kd,"[3]; Table 16, footnote f: 17-69-07-N040 as tracer in FP competition, read-out: Kd (nM) (Hemopexin domain)",2.95 ± 1.3 nM
same,t1/2 (hrs) (rat plasma),[4],34 ± 4 h
same,reduction in sensitivity to a reducing agent such as dithiothreitol (compared to the non-hindered disulphide),[5]; in the antibody drug conjugate context,170 fold
same,Relative Stability to DTT (ADC),[5]; values relate to antibody drug conjugates containing the disulphide linker,170
same,Relative Stability to DTT (BDC),[6],93
same,t1/2 (hrs) (mouse plasma),[7],>36 h
same,"efficacy, tumour clearance",[8],not efficacious and only caused a marginal reduction in tumour sizes
same,"tolerability, body weight",[8],tolerated based on constant weight
same,t1/2 (hrs) (human plasma),[9],32 ± 1 h
same,degradation half-life in human plasma,[9]; refers to Table 16,> 14 h
"CC[C@H](C)[C@@H]1NC(=O)[C@H](CC(=O)O)NC(=O)[C@H](Cc2ccc(O)cc2)NC(=O)[C@H](Cc2ccccc2)NC(=O)[C@H](CC(=O)O)NC(=O)[C@H](CCC(=O)O)NC(=O)[C@@H]2CSCc3cc(cc(c3)CSC[C@@H](C(=O)N[C@@H](C)C(=O)N(C)CC(=O)N(C)CC(=O)N(C)CC(=O)N(C)CC(=O)N(C)CC(=O)N(C)CC(=O)N[C@@H](CCCCNC(=O)c3ccc4c(c3)C(=O)OC43c4ccc(O)cc4Oc4cc(O)ccc43)C(N)=O)NC1=O)CSC[C@H](NC(=O)[C@H](C)N)C(=O)N[C@@H](CCCCN)C(=O)N[C@@H](CC(N)=O)C(=O)N[C@@H](CCCNC(=N)N)C(=O)NCC(=O)N[C@@H](Cc1ccccc1)C(=O)NCC(=O)N2 [Peptide 17-69-N004, A-(17-69)-A-Sar6-K(Fl)] (H-ACKNRGFGCEDFYDICA[Sar][Sar][Sar][Sar][Sar][Sar]K(5FAM)-NH2; linker 2-9-16 via TBMB)",Kd,[2]; [10],692 nM
"C[C@H](NC(=O)CN(C)C(=O)CN(C)C(=O)CN(C)C(=O)CN(C)C(=O)CN(C)C(=O)CN(C)C(=O)CN(C)C(=O)CN(C)C(=O)CN(C)C(=O)CN(C)C(=O)CCN)C(=O)N[C@H]1CSCc2cc3cc(c2)CSC[C@H](NC(=O)[C@@H](C)NC(=O)[C@H](Cc2cccc4ccccc24)NC(=O)[C@H](CCC(=O)O)NC(=O)[C@H](CC(N)=O)NC(=O)[C@@H](C)NC1=O)C(=O)N[C@@H](CCC(=O)O)C(=O)N[C@@H](CC(=O)O)C(=O)N[C@@H](Cc1ccccc1)C(=O)N[C@@H](Cc1ccc(O)cc1)C(=O)N[C@@H](CC(=O)O)C(=O)N[C@@H](C(C)(C)C)C(=O)N[C@H](C(N)=O)CSC3 [17-69-07-N241, bAla-Sar10-A-(17-69-07) D-Ala1 1Nal4 D-Ala5 tBuGly11] (H-[βAla][Sar][Sar][Sar][Sar][Sar][Sar][Sar][Sar][Sar][Sar]AC[dA]NE[1Nal][dA]CEDFYD[Tle]C-NH2; linker 13-19-26 via TBMB)",Kd,"[3]; Table 12, molecules selected for plasma stability assessment, read-out: Kd",1.21 ± 0.24 nM
same,Kd,"[3]; Table 16, footnote e: 17-69-07-N004 as tracer in FP competition, read-out: Kd (nM) (Hemopexin domain)",1.4 ± 0.3 nM
same,species cross-reactivity,"[3]; murine, dog, cynomolgus and human MT1-MMP",fully cross reactive
same,t1/2 (hrs) (rat plasma),[4],>36 h
same,t1/2 (hrs) (mouse plasma),[7],>36 h
same,t1/2 (hrs) (human plasma),[9],>36 h
"C[C@H](NC(=O)CN(C)C(=O)CN(C)C(=O)CN(C)C(=O)CN(C)C(=O)CN(C)C(=O)CN(C)C(=O)CN(C)C(=O)CN(C)C(=O)CN(C)C(=O)CN(C)C(=O)CCNC(=O)c1ccc2c(c1)C(=O)OC21c2ccc(O)cc2Oc2cc(O)ccc21)C(=O)N[C@H]1CSCc2cc3cc(c2)CSC[C@H](NC(=O)[C@@H](C)NC(=O)[C@H](Cc2cccc4ccccc24)NC(=O)[C@H](CCC(=O)O)NC(=O)[C@H](CC(N)=O)NC(=O)[C@@H](C)NC1=O)C(=O)N[C@@H](CCC(=O)O)C(=O)N[C@@H](CC(=O)O)C(=O)N[C@@H](Cc1ccccc1)C(=O)N[C@@H](Cc1ccc(O)cc1)C(=O)N[C@@H](CC(=O)O)C(=O)N[C@@H](C(C)(C)C)C(=O)N[C@H](C(N)=O)CSC3 [17-69-07-N258, Fluorescein-(bAla)-Sar10-A-(17-69-07) D-Ala1 1Nal4 D-Ala5 tBuGly11] ({5FAM-βAla}-[Sar][Sar][Sar][Sar][Sar][Sar][Sar][Sar][Sar][Sar]AC[dA]NE[1Nal][dA]CEDFYD[Tle]C-NH2; linker 12-18-25 via TBMB)",Kd,"[2]; Table 14, fluoresceinated derivative, read-out: V1T1-MMP (=MMP-14) (Kd, in nM)",2.2 nM
